Earlier results on 2 compounds are cited in article PMC3600580 (Experimental neurology, 2012).

The data set concerns offspring. Conditions: developmental exposure, ref Kuriyama, et al., 2005, Rice, 2007, Suvorov, 2009.

`Brc1ccc(Oc2ccc(Br)cc2Br)c(Br)c1` [BDE-47, 2,2′,4,4′-TetraBDE]: the “activity phenotype of offspring” value is “hyperactive”.
For the compound `Brc1c(Br)c(Br)c(Oc2c(Br)c(Br)c(Br)c(Br)c2Br)c(Br)c1Br` [compound 209], the “activity phenotype of offspring” value was “hyperactive”.
